The text below walks through data of patent US9511134B2, “Inducing immune responses to influenza virus using polypeptide and nucleic acid compositions” (priority 2006, dated 2016).

Where two headings read alike, the source gives them in different places. Where no end group is shown, it is not given here.

Common to all, as to assay: biochemical
What all share (format): binding

One test addresses T1, DRB1*0301 (Homo sapiens, UniProt P01903+P01911, A100K/A102G/A103R/A169T/F55Y/I96L/K41T/L162R/M171V/P40S/Q125H/Q178H/Q39Y/R42S/S66N/T106N/T262R/W38E/Y61H).
T1 construct: made in house; host or cells: EBV-transformed homozygous human B cell lines, transfected fibroblasts or single-allele 721.221 transfectants

For the next test, the target named is T2, DRB1*0401 (Homo sapiens, UniProt P01903+P01911, A100K/A169T/F76Y/I96L/K127E/L162R/M171V/N62H/P40V/Q125Y/R42H/S133A/S149N/S66Y/V115G/V209L/W38E).
T2 construct: made in house; host or cells: EBV-transformed homozygous human B cell lines, transfected fibroblasts or single-allele 721.221 transfectants
As to conditions: read-out: IC50 nM to purified HLA DRB1*0401.

The next test addresses DRB1*0404 (Homo sapiens, UniProt P01903+P01911, A100R/A169T/F76Y/I96L/K127E/L162R/M171V/N62H/P40V/Q125Y/R42H/S133A/S149N/S66Y/V209L/W38E). As to conditions: IC50 nM to purified HLA DRB1*0404.
Another test deals with DRB1*0405 (Homo sapiens, UniProt P01903+P01911, A100R/A169T/D86S/F76Y/I96L/K127E/L162R/M171V/N62H/P40V/Q125Y/R42H/S133A/S149N/S66Y/V115G/V209L/W38E). The note with it: read-out: IC50 nM to purified HLA DRB1*0405.
For another test, the target named is DRB1*1302 (Homo sapiens, UniProt P01903+P01911, A100E/A169T/K41T/L162R/M171V/P40S/Q125H/Q178H/Q39Y/Q99D/R42S/S66N/T262R/V115G/W38E/Y61H). As to conditions: read-out: IC50 nM to purified HLA DRB1*1302.
DRB1*1302, sequence (P01903 26-254 limits assumed, other chains not shown): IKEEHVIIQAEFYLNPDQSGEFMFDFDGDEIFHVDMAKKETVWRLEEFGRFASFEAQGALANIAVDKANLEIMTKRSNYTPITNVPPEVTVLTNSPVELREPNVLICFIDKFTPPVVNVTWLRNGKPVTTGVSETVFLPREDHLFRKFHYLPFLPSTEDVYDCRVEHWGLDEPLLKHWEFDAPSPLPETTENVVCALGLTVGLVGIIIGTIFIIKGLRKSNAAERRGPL
The target of another test is T3, DRB1*0101 (Homo sapiens, UniProt P01903+P01911, A100R/D57E/F55L/F60I/F76Y/I96L/L162R/M171V/P40L/Q125E/R42F/V115G/Y59C).
T3 construct: made in house; host or cells: EBV-transformed homozygous human B cell lines, transfected fibroblasts or single-allele 721.221 transfectants
The note with it: IC50 nM to purified HLA DRB1*0101.

A further test has as its target DRB1*0701 (Homo sapiens, UniProt P01903+P01911, A100R/A102G/A103Q/D57E/D86V/E43K/F76Y/K127E/L162R/M171V/P40G/Q125H/Q99D/R33Q/R42Y/R54Q/S133A/S66F/T210M/V115G/Y107V/Y59L/Y89S).
The target in another test is T4, DRB1*1501 (Homo sapiens, UniProt P01903+P01911).
T4 construct: made in house; host or cells: EBV-transformed homozygous human B cell lines, transfected fibroblasts or single-allele 721.221 transfectants
The note with it: read-out: IC50 nM to purified HLA DRB1*1501.

A further test concerns the target DRB1*1101 (Homo sapiens, UniProt P01903+P01911, A100R/A169T/A87E/I96F/K41T/L162R/M171V/P40S/Q125H/Q178H/Q39Y/Q99D/R42S/S66Y/T262R/V115G/W38E). As to conditions: read-out: IC50 nM to purified HLA DRB1*1101.
The target of the next test is T5, DRB5*0101 (Homo sapiens, UniProt P01903+Q30154).
T5 construct: made in house; host or cells: EBV-transformed homozygous human B cell lines, transfected fibroblasts or single-allele 721.221 transfectants

A further test concerns the target T6, DRB4*0101 (Homo sapiens, UniProt P01903+P13762, G164S).
T6 construct: made in house; host or cells: EBV-transformed homozygous human B cell lines, transfected fibroblasts or single-allele 721.221 transfectants
As to conditions: IC50 nM to purified HLA DRB4*0101.

T1 sequence (P01903 26-254, other chains not shown): as the sequence (P01903 26-254 limits assumed, other chains not shown) above
DRB1*1101, sequence (P01903 26-254 limits assumed, other chains not shown): as above

For orientation: IC50 means the concentration that inhibits the measured activity by half. Consider `CC[C@H](C)[C@H](NC(=O)[C@H](CO)NC(=O)[C@@H](NC(=O)[C@@H](NC(=O)[C@@H](NC(=O)[C@@H](N)CCCNC(=N)N)C(C)C)C(C)C)C(C)C)C(=O)N[C@@H](CC(=O)O)C(=O)N[C@@H](CCCNC(=N)N)C(=O)N[C@@H](Cc1ccccc1)C(=O)N[C@@H](CC(C)C)C(=O)N[C@@H](CCCNC(=N)N)C(=O)N[C@H](C(=O)N[C@@H](CCCNC(=N)N)C(=O)N[C@@H](CC(=O)O)C(=O)N[C@@H](CCC(N)=O)C(=O)O)C(C)C` [Flu.PB2.496], for which the 50% inhibitory concentration (IC50) on DRB1*0301 came out at 67 nM; on DRB1*0401, 111 nM; on DRB1*0404, 400 nM; on DRB1*0405, 2050 nM; at DRB1*1302, 8.1 nM.

With `CC(C)[C@H](NC(=O)[C@H](CCC(=O)O)NC(=O)[C@H](C)NC(=O)[C@@H](NC(=O)[C@H](Cc1ccccc1)NC(=O)[C@H](Cc1ccc(O)cc1)NC(=O)[C@H](CC(N)=O)NC(=O)[C@@H](N)CCCNC(=N)N)[C@@H](C)O)C(=O)N[C@@H](CO)C(=O)N[C@@H](Cc1c[nH]cn1)C(=O)N[C@@H](CS)C(=O)N[C@@H](CCCNC(=N)N)C(=O)N[C@@H](C)C(=O)N[C@H](C(=O)N[C@@H](CCC(=O)O)C(=O)O)[C@@H](C)O` [Flu.PA.446], the concentration for half-maximal inhibition (IC50) on DRB1*0101 was 627 nM; at DRB1*0301, 883 nM; at DRB1*0401, 45 nM; at DRB1*0404, 7600 nM; at DRB1*0405 it was 5720 nM.

On to LILYDKEEIRRIWRQ [Flu.NP.111], for which the IC50 was determined as 7180 nM against DRB1*0101; 22 nM against DRB1*0301; 262 nM against DRB1*0404; 7500 nM on DRB1*0405; 3100 nM at DRB1*1302.

Consider `CC[C@H](C)[C@H](NC(=O)CNC(=O)[C@@H](NC(=O)[C@@H]1CCCN1C(=O)[C@H](CCCNC(=N)N)NC(=O)[C@@H](N)CCCNC(=N)N)C(C)C)C(=O)N[C@@H](CO)C(=O)N[C@@H](CO)C(=O)N[C@@H](CCSC)C(=O)N[C@H](C(=O)N[C@@H](CCC(=O)O)C(=O)N[C@@H](C)C(=O)N[C@@H](CCSC)C(=O)N[C@H](C(=O)N[C@@H](CO)C(=O)O)C(C)C)C(C)C` [Flu.PB1.709], for which the IC50 at DRB1*0701 came to 1800 nM; on DRB1*1501 it was 240 nM.

Turning to `CC[C@H](C)[C@H](NC(=O)[C@H](CCSC)NC(=O)[C@H](CO)NC(=O)[C@@H](N)CCC(=O)O)C(=O)N[C@@H](CCC(=O)O)C(=O)N[C@@H](C)C(=O)N[C@@H](CCC(=O)O)C(=O)N[C@@H](CO)C(=O)N[C@@H](CO)C(=O)N[C@H](C(=O)N[C@@H](CCCCN)C(=O)N[C@@H](CCC(=O)O)C(=O)N[C@@H](CCCCN)C(=O)N[C@@H](CC(=O)O)C(=O)N[C@@H](CCSC)C(=O)O)C(C)C` [Flu.PA.596], the IC50 at DRB1*0404 worked out at 121 nM; at DRB1*0405, 72 nM; on DRB1*1101, 12000 nM; against DRB5*0101, 600 nM.

As for `CC[C@H](C)[C@H](NC(=O)[C@H](CO)NC(=O)[C@H](CCC(N)=O)NC(=O)[C@H](CCC(=O)O)NC(=O)[C@H](CC(=O)O)NC(=O)[C@H](CCCNC(=N)N)NC(=O)CNC(=O)[C@H](CO)NC(=O)[C@@H](NC(=O)[C@@H](NC(=O)[C@H](CC(C)C)NC(=O)[C@H](CCC(N)=O)NC(=O)[C@@H](NC(=O)[C@@H](N)CC(C)C)[C@@H](C)CC)[C@@H](C)CC)C(C)C)C(=O)N[C@@H](C)C(=O)O` [Flu.PB2.384], the concentration for half-maximal inhibition (IC50) at DRB1*0101 worked out at 3230 nM; at DRB1*0301, 53 nM; at DRB1*0401, 83 nM; against DRB1*0404 it was 90 nM; at DRB1*0405, 460 nM; on DRB1*1101, 2010 nM. Besides, the IC50 worked out at 4680 nM at DRB1*1302, 420 nM at DRB1*1501 and 9.9 nM on DRB4*0101.

Turning to `CC[C@H](C)[C@H](NC(=O)[C@H](CCSC)NC(=O)[C@H](CS)NC(=O)[C@H](CC(=O)O)NC(=O)[C@H](CCC(=O)O)NC(=O)[C@H](CCC(N)=O)NC(=O)[C@H](CO)NC(=O)[C@H](Cc1ccccc1)NC(=O)[C@@H](NC(=O)[C@H](CCSC)NC(=O)[C@H](C)N)C(C)C)C(=O)N[C@@H](CCCCN)C(=O)N[C@@H](C)C(=O)N[C@H](C(=O)N[C@@H](CCCNC(=N)N)C(=O)O)C(C)C` [Flu.PB2.404], the 50% inhibitory concentration (IC50) at DRB1*0101 was 11000 nM; on DRB1*0301, 718 nM; on DRB1*0401 it was 3280 nM; at DRB1*0404 it was 336 nM; on DRB1*0405 it was 6780 nM; at DRB1*1302, 9200 nM.

As for `CC[C@H](C)[C@H](NC(=O)[C@H](CC(N)=O)NC(=O)[C@H](Cc1ccc(O)cc1)NC(=O)[C@H](CC(C)C)NC(=O)[C@H](CC(N)=O)NC(=O)[C@@H]1CCCN1)C(=O)N[C@@H](CCCNC(=N)N)C(=O)N[C@@H](CC(N)=O)C(=O)N[C@@H](CC(C)C)C(=O)N[C@@H](Cc1c[nH]cn1)C(=O)N[C@H](C(=O)N1CCC[C@H]1C(=O)N[C@@H](CCC(=O)O)C(=O)N[C@H](C(=O)N[C@@H](CS)C(=O)O)C(C)C)[C@@H](C)CC` [Flu.PB1.599], the 50% inhibitory concentration (IC50) at DRB5*0101 (read-out: IC50 nM to purified HLA DRB5*0101) stood at 2310 nM.

As for `CC[C@H](C)[C@H](NC(=O)[C@H](CCC(=O)O)NC(=O)[C@H](Cc1ccccc1)NC(=O)[C@@H](N)CCCNC(=N)N)C(=O)N[C@H](C(=O)NCC(=O)N[C@H](C(=O)N[C@@H](CCSC)C(=O)N[C@@H](CCCNC(=N)N)C(=O)N[C@@H](CCCNC(=N)N)C(=O)N[C@@H](CC(C)C)C(=O)N[C@@H](C)C(=O)N[C@@H](CC(=O)O)C(=O)N[C@@H](CCC(N)=O)C(=O)N[C@@H](CO)C(=O)O)[C@@H](C)O)[C@@H](C)O` [Flu.PA.207], the values for the half-maximal inhibitory concentration (IC50) at DRB1*1101 and on DRB5*0101 were 19 nM and 9.2 nM, respectively.

Regarding `CC[C@H](C)[C@H](NC(=O)[C@H](CCSC)NC(=O)[C@@H]1CCCN1C(=O)[C@H](CC(N)=O)NC(=O)[C@@H](N)Cc1ccccc1)C(=O)N[C@H](C(=O)N[C@@H](CCC(=O)O)C(=O)N[C@@H](CC(C)C)C(=O)N[C@@H](C)C(=O)N[C@@H](CCC(=O)O)C(=O)N[C@@H](CCCCN)C(=O)N[C@H](C(=O)N[C@@H](CCSC)C(=O)N[C@@H](CCCCN)C(=O)N[C@@H](CCC(=O)O)C(=O)O)[C@@H](C)O)C(C)C` [Flu.PA.12], the IC50 against DRB1*0101 was determined as 48 nM; on DRB1*0301, 744 nM; on DRB1*0401 it was 29 nM; against DRB1*0404, 610 nM; on DRB1*0405 it was 1240 nM; on DRB1*1302, 1250 nM.

With `CC[C@H](C)[C@H](NC(=O)CNC(=O)[C@H](CCCNC(=N)N)NC(=O)[C@@H](N)CCC(N)=O)C(=O)N[C@@H](CC(C)C)C(=O)N[C@@H](CCC(=O)O)C(=O)N[C@@H](CC(=O)O)C(=O)N[C@@H](CCC(=O)O)C(=O)N[C@@H](CCC(N)=O)C(=O)N[C@@H](CCSC)C(=O)N[C@@H](Cc1ccc(O)cc1)C(=O)N[C@@H](CCC(N)=O)C(=O)N[C@@H](CCCCN)C(=O)N[C@@H](CS)C(=O)N[C@@H](CS)C(=O)O` [Flu.PB1.682], the IC50 against DRB1*0101 was found to be 433 nM; against DRB1*0301, 34 nM; on DRB1*0401, 2560 nM; at DRB1*0404, 3270 nM; at DRB1*0405, 700 nM.

With `CC[C@H](C)[C@H](NC(=O)[C@H](CCC(=O)O)NC(=O)[C@H](CCC(N)=O)NC(=O)[C@H](CCC(=O)O)NC(=O)[C@@H](NC(=O)[C@H](CCC(=O)O)NC(=O)[C@H](CC(C)C)NC(=O)[C@H](CC(C)C)NC(=O)[C@H](CC(C)C)NC(=O)[C@@H](N)CCC(N)=O)C(C)C)C(=O)N[C@@H](CCCNC(=N)N)C(=O)N[C@H](C(=O)N[C@@H](Cc1ccccc1)C(=O)N[C@@H](CO)C(=O)N[C@@H](Cc1ccccc1)C(=O)O)[C@@H](C)O` [Flu.NS2.180], the concentration for half-maximal inhibition (IC50) on DRB1*0101 came out at 11900 nM; at DRB1*0301, 792 nM; on DRB1*0401 it was 13900 nM; at DRB1*0404, 1600 nM; on DRB1*0405 it was 5140 nM.
